In data set [1] the test system is Col2. Put plainly: Growth inhibition of human Col2 cells xenografted in NCr nu/nu mouse at 0.195 to 1.56 mg/kg, sc once daily administered from day 3 to 6 after implantation measured on day 7 by MTT-based hollow-fiber test. To be noted: route subcutaneous. It counts as functional. Background: Xenograft models place foreign cells or tissue in a host animal.
Data set [2] deals with Col2. Nature of the data set: Growth inhibition of human Col2 cells xenografted in ip dosed NCr nu/nu mouse administered once daily from day 3 to 6 after implantation measured on day 7 by MTT-based hollow-fiber test. Type of data set: functional.
In data set [3] the test system is LNCaP. Put plainly: Growth inhibition of human LNCAP cells xenografted in NCr nu/nu mouse at 0.195 to 1.56 mg/kg, ip once daily administered from day 3 to 6 after implantation measured on day 7 by MTT-based hollow-fiber test. Particulars: route intraperitoneal. It counts as functional.
For data set [4], the system named is KB. Put plainly: Growth inhibition of human KB cells xenografted in NCr nu/nu mouse at 0.195 to 1.56 mg/kg, ip once daily administered from day 3 to 6 after implantation measured on day 7 by MTT-based hollow-fiber test. It counts as functional. To be noted: route intraperitoneal.
Data set [5] relates to Col2. Put plainly: Growth inhibition of human Col2 cells xenografted in NCr nu/nu mouse at 0.195 to 1.56 mg/kg, ip once daily administered from day 3 to 6 after implantation measured on day 7 by MTT-based hollow-fiber test. Type of data set: functional. To be noted: route intraperitoneal.
For data set [6], the system named is LNCaP. Put plainly: Growth inhibition of human LNCAP cells xenografted in ip dosed NCr nu/nu mouse administered once daily from day 3 to 6 after implantation measured on day 7 by MTT-based hollow-fiber test. Type of data set: functional.
Data set [7] concerns KB. Put plainly: Growth inhibition of human KB cells xenografted in NCr nu/nu mouse at 0.195 to 1.56 mg/kg, sc once daily administered from day 3 to 6 after implantation measured on day 7 by MTT-based hollow-fiber test. Type of data set: functional. To be noted: route subcutaneous.
Data set [8] relates to LNCaP. Nature of the data set: Growth inhibition of human LNCAP cells xenografted in NCr nu/nu mouse at 0.195 to 1.56 mg/kg, sc once daily administered from day 3 to 6 after implantation measured on day 7 by MTT-based hollow-fiber test. Particulars: route subcutaneous. Type of data set: functional.
Data set [9] relates to KB. Nature of the data set: Growth inhibition of human KB cells xenografted in NCr nu/nu mouse at 0.78 to 3.125 mg/kg, ip once daily administered from day 3 to 6 after implantation measured on day 7 by MTT-based hollow-fiber test. Type of data set: functional. To be noted: route intraperitoneal.
Data set [10] relates to KB. Put plainly: Growth inhibition of human KB cells xenografted in NCr nu/nu mouse at 0.78 to 3.125 mg/kg, sc once daily administered from day 3 to 6 after implantation measured on day 7 by MTT-based hollow-fiber test. It counts as functional. To be noted: route subcutaneous.
In data set [11] the test system is LNCaP. Nature of the data set: Growth inhibition of human LNCAP cells xenografted in NCr nu/nu mouse at 0.78 to 3.125 mg/kg, sc once daily administered from day 3 to 6 after implantation measured on day 7 by MTT-based hollow-fiber test. Type of data set: functional. To be noted: route subcutaneous.
The test system of data set [12] is LNCaP. Nature of the data set: Growth inhibition of human LNCAP cells xenografted in NCr nu/nu mouse at 0.78 to 3.125 mg/kg, ip once daily administered from day 3 to 6 after implantation measured on day 7 by MTT-based hollow-fiber test. To be noted: route intraperitoneal. Type of data set: functional.
The test system of data set [13] is LNCaP. Nature of the data set: Growth inhibition of human LNCAP cells xenografted in NCr nu/nu mouse at 10 to 40 mg/kg, sc once daily administered from day 3 to 6 after implantation measured on day 7 by MTT-based hollow-fiber test. Type of data set: functional. To be noted: route subcutaneous.
Data set [14] has as its system LNCaP. Put plainly: Growth inhibition of human LNCAP cells xenografted in NCr nu/nu mouse at 10 to 40 mg/kg, ip once daily administered from day 3 to 6 after implantation measured on day 7 by MTT-based hollow-fiber test. Type of data set: functional. To be noted: route intraperitoneal.
The subject of data set [15] is LNCaP. Nature of the data set: Growth inhibition of human LNCAP cells xenografted in NCr nu/nu mouse at 5 to 20 mg/kg, ip once daily administered from day 3 to 6 after implantation measured on day 7 by MTT-based hollow-fiber test. It counts as functional. Particulars: route intraperitoneal.
The subject of data set [16] is LNCaP. Nature of the data set: Growth inhibition of human LNCAP cells xenografted in NCr nu/nu mouse at 5 to 20 mg/kg, sc once daily administered from day 3 to 6 after implantation measured on day 7 by MTT-based hollow-fiber test. It counts as functional. To be noted: route subcutaneous.
Data set [17] has as its system MCF7. Put plainly: Growth inhibition of human MCF7 cells xenografted in NCr nu/nu mouse at 0.625 to 5 mg/kg, ip once daily administered from day 3 to 6 after implantation measured on day 7 by MTT-based hollow-fiber test. It counts as functional. To be noted: dose mg/kg 3-6; route intraperitoneal.
Data set [18] relates to LNCaP. Nature of the data set: Growth inhibition of human LNCAP cells xenografted in NCr nu/nu mouse at 0.625 to 5 mg/kg, sc once daily administered from day 3 to 6 after implantation measured on day 7 by MTT-based hollow-fiber test. Type of data set: functional. Particulars: route subcutaneous.
The test system of data set [19] is Lu1. Nature of the data set: Growth inhibition of human Lu1 cells xenografted in NCr nu/nu mouse at 0.625 to 5 mg/kg, sc once daily administered from day 3 to 6 after implantation measured on day 7 by MTT-based hollow-fiber test. Type of data set: functional. To be noted: dose mg/kg 3-6; route subcutaneous.
Data set [20] concerns Lu1. Put plainly: Growth inhibition of human Lu1 cells xenografted in ip dosed NCr nu/nu mouse administered once daily from day 3 to 6 after implantation measured on day 7 by MTT-based hollow-fiber test. Type of data set: functional.
For data set [21], the system named is MCF7. Nature of the data set: Growth inhibition of human MCF7 cells xenografted in ip dosed NCr nu/nu mouse administered once daily from day 3 to 6 after implantation measured on day 7 by MTT-based hollow-fiber test. It counts as functional.
The test system of data set [22] is LNCaP. Put plainly: Growth inhibition of human LNCAP cells xenografted in NCr nu/nu mouse at 0.625 to 5 mg/kg, ip once daily administered from day 3 to 6 after implantation measured on day 7 by MTT-based hollow-fiber test. Type of data set: functional. Particulars: route intraperitoneal.
Data set [23] has as its system MCF7. Nature of the data set: Growth inhibition of human MCF7 cells xenografted in NCr nu/nu mouse at 0.625 to 5 mg/kg, sc once daily administered from day 3 to 6 after implantation measured on day 7 by MTT-based hollow-fiber test. Type of data set: functional. To be noted: dose mg/kg 3-6; route subcutaneous.
In data set [24] the test system is Lu1. Put plainly: Growth inhibition of human Lu1 cells xenografted in NCr nu/nu mouse at 0.625 to 5 mg/kg, ip once daily administered from day 3 to 6 after implantation measured on day 7 by MTT-based hollow-fiber test. Type of data set: functional. To be noted: dose mg/kg 3-6; route intraperitoneal.
Data set [25] is described as follows: Acute toxicity in ip dosed mouse. Type of data set: organism-based. To be noted: in vivo.

Turning to `CC(=O)O[C@H]1O[C@H]([C@@H]2c3cccc(O)c3C(=O)c3c(O)cc(C)cc32)[C@H](O)[C@@H](O)[C@H]1O` [ALVARADOIN F], the “growth inhibition (GI)” value in [1] is given as 1%; in data set [3] it was 59%; in [4], 32%; in data set [5], 21%; in data set [7], 2%; in data set [8], 3%. Moreover, the ED50 worked out at 0.23 µM in data set [2] and 0.12 µM in [6].

Consider `CC(=O)O[C@@H]1O[C@@H]([C@H]2c3cccc(O)c3C(=O)c3c(O)cc(C)cc32)[C@H](O)[C@@H](OC(=O)C=C(C)C)[C@H]1O` [ALVARADOIN H], for which the “growth inhibition (GI)” value in data set [9] amounted to 43%; in data set [10] it was 1%; in [11] it was 10%; in data set [12], 47%. Besides, the ED50 in data set [6] is 0.29 µM.

Consider `COc1ccc([C@H]2COc3c(ccc4c3C=CC(C)(CCC=C(C)C)O4)C2)c(O)c1O` (some centres undefined) [NITIDULIN], for which the “growth inhibition (GI)” value in data set [13] is 0%; in data set [14], 54%. In data set [6], this molecule showed an ED50 of 9.7 µM.

Turning to `O=C1OC[C@@H]2Cc3cc4c(cc3[C@@H](c3ccc5c(c3)OCO5)[C@H]12)OCO4` [PICROPOLYGAMAIN], the figures for the “growth inhibition (GI)” value in [15] and in data set [16] were 21% and 3%, respectively. The molecule further returned an ED50 in data set [6] of 3.1 µM.

Turning to `COC(=O)[C@H]1[C@@H](O)[C@@]2(O)c3c(OC)cc(O[C@@H]4O[C@@H]([C@H](O)CO)CO[C@H]4OC)cc3O[C@@]2(c2ccc(OC)cc2)[C@@H]1c1ccccc1` [SILVESTROL], the “growth inhibition (GI)” value is recorded as 20% in data set [17]; 12% in data set [18]; 0% in data set [19]; 15% in [22]; 5% in data set [23]; 12% in data set [24]. The ED50 in data set [20] came to 0.0012 µM; in data set [21] it was 0.0015 µM; in data set [6], 0.0015 µM. In [25], the MTD turned out to be 2.5 mg/kg.

The values are drawn from ChEMBL document CHEMBL1152339, “Use of the in vivo hollow fiber assay in natural products anticancer drug discovery” (J Nat Prod, 2009).
